Measurements as given in BindingDB's records for doi:10.1016/j.bmcl.2003.11.074 (Kaohsiung Medical University, 2004).
pIC50: −log10 of the molar value.

Experiments:
[1] = target: T1, Lysozyme C-1 (Rattus norvegicus, UniProt P00697); experiment: ChEBML_100187
T1 sequence (P00697 whole entry): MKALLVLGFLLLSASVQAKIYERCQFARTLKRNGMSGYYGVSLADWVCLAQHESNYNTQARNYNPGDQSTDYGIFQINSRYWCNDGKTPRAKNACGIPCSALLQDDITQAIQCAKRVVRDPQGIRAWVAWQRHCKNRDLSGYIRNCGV
Source text: Inhibitory effect of compound on the release of lysozyme in rat neutrophils stimulated with fMLP/CB

[2] = Inhibitory effect of compound on the release of Beta-glucuronidase in rat neutrophils stimulated with fMLP/CB

pIC50 [1] | pIC50 [2] | SMILES
5.05 |  | CN1CCN(CCCN2c3ccccc3Sc3ccc(C(F)(F)F)cc32)CC1
5.01 |  | O=c1c(-c2ccc(O)cc2O)coc2cc(O)cc(O)c12 [3-(2,4-Dihydroxy-phenyl)-5,7-dihydroxy-chromen-4-one]
4.75 |  | O=c1cc(-c2ccc(O)cc2)oc2cc(O)cc(O)c12 [Naringenin, 18]
< 4.52 | < 4.52 | COc1cc(O)ccc1-c1coc2cc(O)cc(O)c2c1=O [5,7-Dihydroxy-3-(4-hydroxy-2-methoxy-phenyl)-chromen-4-one]

Second part, the compound before the results:

SMILES | pIC50 [1] | pIC50 [2]
C[C@](O)(CO)c1cc2c3c(ccc2o1)[C@@H]1COc2cc(O)ccc2[C@@H]1O3 [2-((11bR,12R)-9-Hydroxy-5b,11b-dihydro-6H-3,7,12-trioxa-benzo[a]cyclopenta[i]fluoren-2-yl)-propane-1,2-diol] | < 4.52 | < 4.52
O=c1c(O)c(-c2ccc(O)cc2)oc2cc(OC3O[C@H](CO)[C@@H](O)[C@H](O)[C@H]3O)cc(O)c12 (stereo not given in full) | < 4.52 | < 4.52
O=c1cc(-c2ccc(O)cc2)oc2cc(O)ccc12 [7-hydroxy-2-(4-hydroxyphenyl)-4H-chromen-4-one] | < 4.52 | 
